Measurements as given in PubChem BioAssay AID1963973 (Molecular Pharmacology Branch, DTP, NCI, 2024).

System: 883617-216-R-J1-PDC tumor spheroids, viability
Experiment: Anticancer human tumor 883617-216-R-J1-PDC patient-derived bladder carcinoma cell line growth inhibition [PI3K]
Settings: spheroids with HUVEC and MSC; for IC50: curve of first compound; for viability, T/C: stronger effect = lower value
In short: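 Combination activity was assessed by viability in multicellular tumor spheroids carrying HUVEC and MSC components. Agents were tested with PI3K inhibitors from a Cmax-based top dose (or 10 microM) downward in half-log increments.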

[1] = second compound 0.00316 µM, first compound 0.0316 µM
[2] = second compound 0.00316 µM, first compound 0.1 µM
[3] = second compound 0.00316 µM, first compound 0.316 µM
[4] = second compound 0.00316 µM, first compound 1 µM
[5] = second compound 0.00316 µM, first compound 3.16 µM
[6] = second compound 0.00316 µM, first compound 10 µM
[7] = second compound 0.01 µM, first compound 0.0316 µM
[8] = second compound 0.01 µM, first compound 0.1 µM
[9] = second compound 0.01 µM, first compound 0.316 µM
[10] = second compound 0.01 µM, first compound 1 µM
[11] = second compound 0.01 µM, first compound 3.16 µM
[12] = second compound 0.01 µM, first compound 10 µM
[13] = second compound 0.0316 µM, first compound 0.0316 µM
[14] = second compound 0.0316 µM, first compound 0.1 µM
[15] = second compound 0.0316 µM, first compound 0.316 µM
[16] = second compound 0.0316 µM, first compound 1 µM
[17] = second compound 0.0316 µM, first compound 3.16 µM
[18] = second compound 0.0316 µM, first compound 10 µM
[19] = second compound 0.1 µM, first compound 0.0316 µM
[20] = second compound 0.1 µM, first compound 0.1 µM
[21] = second compound 0.1 µM, first compound 0.316 µM
[22] = second compound 0.1 µM, first compound 1 µM
[23] = second compound 0.1 µM, first compound 3.16 µM
[24] = second compound 0.1 µM, first compound 10 µM
[25] = second compound 0.316 µM, first compound 0.0316 µM
[26] = second compound 0.316 µM, first compound 0.1 µM
[27] = second compound 0.316 µM, first compound 0.316 µM
[28] = second compound 0.316 µM, first compound 1 µM
[29] = second compound 0.316 µM, first compound 3.16 µM
[30] = second compound 0.316 µM, first compound 10 µM
[31] = second compound 1 µM, first compound 0.0316 µM
[32] = second compound 1 µM, first compound 0.1 µM
[33] = second compound 1 µM, first compound 0.316 µM
[34] = second compound 1 µM, first compound 1 µM
[35] = second compound 1 µM, first compound 3.16 µM
[36] = second compound 1 µM, first compound 10 µM
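Also: spheroids exposed to agents for 7 days before the viability read.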

What does the source list for `Cn1cnc2c(F)c(Nc3ccc(Br)cc3Cl)c(C(=O)NOCCO)cc21` + COc1c(OCCCN2CCOCC2)ccc2c3n(c(=NC(=O)c4cnc(N)nc4)nc12)CCN3?
IC50 (second compound 0.00316 µM): 23.6 nM; IC50 (second compound 0.01 µM): < 9.49 nM; IC50 (second compound 0.0316 µM): < 9.49 nM; IC50 (second compound 0.1 µM): < 9.49 nM; IC50 (second compound 0.316 µM): < 9.49 nM; IC50 (second compound 1 µM): < 9.49 nM; viability, T/C (second compound 0.00316 µM, first compound 0.00949 µM): 59.8%; viability, T/C (second compound 0.00316 µM, first compound 0.03 µM): 43.9%; viability, T/C (second compound 0.00316 µM, first compound 0.0949 µM): 37.1%; viability, T/C (second compound 0.00316 µM, first compound 0.3 µM): 39.7%; viability, T/C (second compound 0.00316 µM, first compound 0.949 µM): 22.8%; viability, T/C (second compound 0.00316 µM, first compound 3 µM): 18.9%; viability, T/C (second compound 0.01 µM, first compound 0.00949 µM): 44.2%; viability, T/C (second compound 0.01 µM, first compound 0.03 µM): 42.5%; viability, T/C (second compound 0.01 µM, first compound 0.0949 µM): 27%; viability, T/C (second compound 0.01 µM, first compound 0.3 µM): 21.2%; viability, T/C (second compound 0.01 µM, first compound 0.949 µM): 22.8%; viability, T/C (second compound 0.01 µM, first compound 3 µM): 15.2%; viability, T/C (second compound 0.0316 µM, first compound 0.00949 µM): 23.1%; viability, T/C (second compound 0.0316 µM, first compound 0.03 µM): 20.8%; viability, T/C (second compound 0.0316 µM, first compound 0.0949 µM): 16.4%; viability, T/C (second compound 0.0316 µM, first compound 0.3 µM): 14.1%; viability, T/C (second compound 0.0316 µM, first compound 0.949 µM): 11.8%; viability, T/C (second compound 0.0316 µM, first compound 3 µM): 7.94%; viability, T/C (second compound 0.1 µM, first compound 0.00949 µM): 9.95%; viability, T/C (second compound 0.1 µM, first compound 0.03 µM): 7.44%; viability, T/C (second compound 0.1 µM, first compound 0.0949 µM): 5.9%; viability, T/C (second compound 0.1 µM, first compound 0.3 µM): 4.34%; viability, T/C (second compound 0.1 µM, first compound 0.949 µM): 3.93%; viability, T/C (second compound 0.1 µM, first compound 3 µM): 2.03%; viability, T/C (second compound 0.316 µM, first compound 0.00949 µM): 3.44%; viability, T/C (second compound 0.316 µM, first compound 0.03 µM): 2.07%; viability, T/C (second compound 0.316 µM, first compound 0.0949 µM): 1.3%; viability, T/C (second compound 0.316 µM, first compound 0.3 µM): 1.34%; viability, T/C (second compound 0.316 µM, first compound 0.949 µM): 0.72%; viability, T/C (second compound 0.316 µM, first compound 3 µM): 0.47%; viability, T/C (second compound 1 µM, first compound 0.00949 µM): 1.2%; viability, T/C (second compound 1 µM, first compound 0.03 µM): 0.53%; viability, T/C (second compound 1 µM, first compound 0.0949 µM): 0.38%; viability, T/C (second compound 1 µM, first compound 0.3 µM): 0.39%; viability, T/C (second compound 1 µM, first compound 0.949 µM): 0.18%; viability, T/C (second compound 1 µM, first compound 3 µM): 0.21%

For `C=CC(=O)N1CCN(c2nc(=O)n(-c3c(C)ccnc3C(C)C)c3nc(-c4c(O)cccc4F)c(F)cc23)C(C)C1` (stereo unspecified) + COc1c(OCCCN2CCOCC2)ccc2c3n(c(=NC(=O)c4cnc(N)nc4)nc12)CCN3, which IC50 (second compound 0.00316 µM) is on record?
The IC50 was less than 31.6 nM.

What about the IC50 (second compound 0.01 µM) of the same molecule?
The IC50 was less than 31.6 nM.

And the IC50 (second compound 0.0316 µM)?
The IC50 was less than 31.6 nM.

And the IC50 (second compound 0.1 µM)?
Its IC50 is less than 31.6 nM.

What about the IC50 (second compound 0.316 µM) of the same molecule?
The IC50 was less than 31.6 nM.

And the IC50 (second compound 1 µM)?
Its IC50 is less than 31.6 nM.

And the viability, T/C [1]?
The viability, T/C was 54.8%.

What about the viability, T/C [2] of the same molecule?
Its viability, T/C is 40.3%.

And the viability, T/C [3]?
The viability, T/C was 44%.

And the viability, T/C [4]?
The viability, T/C was 46.3%.

And the viability, T/C [5]?
The viability, T/C was 52.3%.

And the viability, T/C [6]?
The viability, T/C was 53.9%.

And the viability, T/C [7]?
The viability, T/C was 46%.

And the viability, T/C [8]?
Its viability, T/C is 34.9%.

What about the viability, T/C [9] of the same molecule?
The viability, T/C was 33.4%.

What about the viability, T/C [10] of the same molecule?
Its viability, T/C is 41.1%.

And the viability, T/C [11]?
Its viability, T/C is 43.5%.

And the viability, T/C [12]?
The viability, T/C was 38.7%.

What about the viability, T/C [13] of the same molecule?
The viability, T/C was 21.4%.

And the viability, T/C [14]?
Its viability, T/C is 19.8%.

And the viability, T/C [15]?
The viability, T/C was 16.6%.

And the viability, T/C [16]?
Its viability, T/C is 22.3%.

And the viability, T/C [17]?
The viability, T/C was 24.1%.

What about the viability, T/C [18] of the same molecule?
Its viability, T/C is 24.5%.

And the viability, T/C [19]?
Its viability, T/C is 8.54%.

And the viability, T/C [20]?
The viability, T/C was 3.86%.

What about the viability, T/C [21] of the same molecule?
The viability, T/C was 6.45%.

What about the viability, T/C [22] of the same molecule?
Its viability, T/C is 8.64%.

And the viability, T/C [23]?
The viability, T/C was 10.2%.

And the viability, T/C [24]?
The viability, T/C was 9.28%.

And the viability, T/C [25]?
Its viability, T/C is 1.88%.

What about the viability, T/C [26] of the same molecule?
The viability, T/C was 1.7%.

What about the viability, T/C [27] of the same molecule?
The viability, T/C was 1.81%.

And the viability, T/C [28]?
The viability, T/C was 2.12%.

And the viability, T/C [29]?
Its viability, T/C is 2.85%.

What about the viability, T/C [30] of the same molecule?
Its viability, T/C is 2.77%.

And the viability, T/C [31]?
The viability, T/C was 1.07%.

What about the viability, T/C [32] of the same molecule?
The viability, T/C was 0.62%.

And the viability, T/C [33]?
Its viability, T/C is 0.69%.

And the viability, T/C [34]?
The viability, T/C was 0.95%.

And the viability, T/C [35]?
The viability, T/C was 1.99%.

And the viability, T/C [36]?
The viability, T/C was 0.95%.

Which results are given for `CC1(C)CCC(CN2CCN(c3ccc(C(=O)NS(=O)(=O)c4ccc(NCC5CCOCC5)c([N+](=O)[O-])c4)c(Oc4cnc5[nH]ccc5c4)c3)CC2)=C(c2ccc(Cl)cc2)C1` + COc1c(OCCCN2CCOCC2)ccc2c3n(c(=NC(=O)c4cnc(N)nc4)nc12)CCN3?
IC50 (second compound 0.00316 µM): > 10000 nM; IC50 (second compound 0.01 µM): > 10000 nM; IC50 (second compound 0.0316 µM): < 31.6 nM; IC50 (second compound 0.1 µM): < 31.6 nM; IC50 (second compound 0.316 µM): < 31.6 nM; IC50 (second compound 1 µM): < 31.6 nM; viability, T/C [1]: 86.9%; viability, T/C [2]: 84.3%; viability, T/C [3]: 77.5%; viability, T/C [4]: 83.7%; viability, T/C [5]: 82.7%; viability, T/C [6]: 110%; viability, T/C [7]: 68%; viability, T/C [8]: 67.9%; viability, T/C [9]: 66.5%; viability, T/C [10]: 68.5%; viability, T/C [11]: 66.1%; viability, T/C [12]: 58.2%; viability, T/C [13]: 32.3%; viability, T/C [14]: 35.8%; viability, T/C [15]: 40.5%; viability, T/C [16]: 39.1%; viability, T/C [17]: 35.3%; viability, T/C [18]: 35.5%; viability, T/C [19]: 27.5%; viability, T/C [20]: 15.1%; viability, T/C [21]: 17%; viability, T/C [22]: 17.8%; viability, T/C [23]: 15.2%; viability, T/C [24]: 13.1%; viability, T/C [25]: 6.5%; viability, T/C [26]: 4.66%; viability, T/C [27]: 5.31%; viability, T/C [28]: 5.04%; viability, T/C [29]: 4.63%; viability, T/C [30]: 4.02%; viability, T/C [31]: 3.29%; viability, T/C [32]: 2.86%; viability, T/C [33]: 2.77%; viability, T/C [34]: 3.15%; viability, T/C [35]: 2.53%; viability, T/C [36]: 2.82%
